These results are taken from US6355225B1, “Fullerene contrast agent for magnetic resonance imaging and spectroscopy” (Wm. Marsh Rice University TDA Research, Inc., priority 1999, dated 2002).

Common to all, as to type: physicochemical
Data set [1] can be described thus: Air stability of the paramagnetic fullerol. The text has this: According to a second embodiment, a water-soluble, paramagnetic fullerene derivative comprising about 32 hydroxyl groups attached to C60 fullerene was synthesized and shown to be air-stable, paramagnetic, and an efficient water proton relaxation agent.
These experimental results make C60(OH)32 (or C60(OH)32^− or C60(OH)32^2−) the first reported water-soluble, air-stable fullerene paramagnetic radical.

Data set [2] is described as follows: Paramagnetism in solution by the NMR method (D2O solvent, t-butyl alcohol reference). To be noted: 300 K. The source says:
(§1) The magnetic properties of the fullerol were characterized by several methods. […] A solid sample was further studied using a Quantum Design MPMS-5S […] magnetometer operating at 5 Tesla. […] After correction for the diamagnetic contribution of the sample (using data from C60 for the fullerene carbons and Pascal's constants for the OH groups), the final value of the effective magnetic moment, μb, of the C60(OH)32 is approximately 1.5 Bohr magnetons at 300 K. Given the large diamagnetic contribution, uncertainty in the diamagnetic correction factors, and assuming no spin orbit or other types of spin coupling, this is within the experimental error for predicting one free electron per fullerol molecule in the solid state. A measurement of the paramagnetism of the solution form of the acid fullerol was then conducted using the NMR method employing D2O as the solvent and t-butyl alcohol as the reference compound. Measurement of the chemical shift of the reference peaks indicated a paramagnetism of 2.1 Bohr magnetons at 300 K when in solution.

Data set [3] is described as follows: Effective magnetic moment of solid sample, Quantum Design MPMS-5S magnetometer at 5 Tesla. To be noted: 300 K, after diamagnetic correction.
Excerpt: as §1

A short description of data set [4]: Water solubility of the C60(OH)32 fullerol.
Data set [5] is described as follows: Water proton relaxivity (T1), Bruker PC/20 relaxometer. The conditions noted are these: 20 MHz (0.47 T), 40° C., four concentrations. The method, then: The paramagnetic fullerol's potential as an MRI relaxation agent was evaluated by direct measurement of its water proton relaxivity using a Bruker model PC/20 relaxometer (Bruker Ltd., Canada) operating at a fixed field of 20 MHz (0.47 T) and 40° C. Four separate measurements at four different concentrations were performed to determine the T1 relaxation. A plot of the results is shown in FIG. 3 and indicates a relaxivity of about 0.5 mM^−1sec^−. The relaxivity of the compound is thus considerably lower than the best currently available Gd-chelates (ca. […]) but is still large enough to be useful in the body.

Consider C60(OH)32, for which the stability in air result in data set [1] is reported as “air-stable”. For the same substance, the paramagnetism in solution in data set [2] was 2.1 Bohr magnetons. Further, in data set [3], the effective magnetic moment entry is on record as “approximately 1.5 Bohr magnetons”. Also, the solubility in water result in data set [4] was “at least 4 mM”. For the same substance, the “water proton relaxivity (T1)” value in data set [5] is “about 0.5 mM^−1sec^−”.
